Laboratory results: the supplement of paper PMC10307832

Legend:
Experiment in all cases: relative viability (nuclei count vs DMSO), 5 days (fraction); higher = more cells survive
[1] = compound: Cc1cnc(CNC(=O)c2c(=O)c3ccc(N4CCCN(C)CC4)nc3n3c2sc2ccccc23)cn1 [CX-5461] + CC(=O)Nc1cccc(-n2c(=O)n(C3CC3)c(=O)c3c(Nc4ccc(I)cc4F)n(C)c(=O)c(C)c32)c1 [Trametinib] (partner 0.02 µM)
Summary of the method: (§1)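 Relative viability equals treated-well nuclei counts divided by vehicle-well nuclei counts. Counts came from 4× images of lung cancer cell lines grown in 1536-well plates for 5 days after pin-tool dosing on the day after seeding. Dosing used one drug alone or a fixed anchor-drug dose plus five library-drug doses (not always all listed) in √10 steps, and values are medians of duplicate plates.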

[2] = compound: O=C(Nc1cc(C(F)(F)F)cc(C(F)(F)F)c1)c1cc(Cl)ccc1O [IMD-0354] + CS(=O)(=O)N1CCN(Cc2cc3nc(-c4cccc5[nH]ncc45)nc(N4CCOCC4)c3s2)CC1 [Pictilisib] (partner 1 µM)
Summary of the method: as §1

[3] = compound: O=C(Nc1cc(C(F)(F)F)cc(C(F)(F)F)c1)c1cc(Cl)ccc1O [IMD-0354] + O=C(c1cc(Cc2n[nH]c(=O)c3ccccc23)ccc1F)N1CCN(C(=O)C2CC2)CC1 [Olaparib] (partner 8 µM)
Summary of the method: as §1

[4] = compound: Cc1cnc(CNC(=O)c2c(=O)c3ccc(N4CCCN(C)CC4)nc3n3c2sc2ccccc23)cn1 [CX-5461] + CCNC(=O)c1noc(-c2cc(C(C)C)c(O)cc2O)c1-c1ccc(CN2CCOCC2)cc1 [Luminespib] (partner 0.01 µM)
Summary of the method: as §1

| Cell Line | relative viability ([1]; first compound 0.01 µM) | relative viability ([1]; first compound 0.03162 µM) | relative viability ([1]; first compound 0.1 µM) | relative viability ([1]; first compound 0.3162 µM) | relative viability ([1]; first compound 1 µM) | relative viability ([2]; first compound 0.04 µM) | relative viability ([2]; first compound 0.1265 µM) | relative viability ([2]; first compound 0.4 µM) | relative viability ([2]; first compound 1.265 µM) | relative viability ([2]; first compound 4 µM) | relative viability ([3]; first compound 0.04 µM) | relative viability ([3]; first compound 0.1265 µM) | relative viability ([3]; first compound 0.4 µM) | relative viability ([3]; first compound 1.265 µM) | relative viability ([3]; first compound 4 µM) | relative viability ([4]; first compound 0.01 µM) | relative viability ([4]; first compound 0.03162 µM) | relative viability ([4]; first compound 0.1 µM) | relative viability ([4]; first compound 0.3162 µM) | relative viability ([4]; first compound 1 µM) |
| --- | --- | --- | --- | --- | --- | --- | --- | --- | --- | --- | --- | --- | --- | --- | --- | --- | --- | --- | --- | --- |
| HCC-78 | 0.76 | 0.82 | 0.88 | 0.753 | 0.71 | 0.179 | 0.204 | 0.207 | 0.095 | 0.126 | 0.814 | 0.744 | 0.649 | 1.04 | 0.291 |  |  |  |  |  |
| HCC-366 | 0.345 | 0.389 | 0.443 | 0.412 | 0.306 | 0.16 | 0.193 | 0.168 | 0.148 | 0.0681 | 0.363 | 0.371 | 0.231 | 0.053 | 0.0706 |  |  |  |  |  |
| HCC-827 | 0.509 | 0.583 | 0.617 | 0.494 | 0.582 | 1.03 | 0.795 | 0.691 | 0.66 | 0.337 | 0.55 | 0.614 | 0.482 | 0.372 | 0.21 | 0.875 | 0.69 | 0.921 | 0.588 | 0.791 |
| HOP-62 | 0.404 | 0.37 | 0.388 | 0.419 | 0.363 | 0.958 | 0.804 | 0.346 | 0.237 | 0.0877 | 0.262 | 0.413 | 0.347 | 0.15 | 0.0835 | 0.849 | 0.921 | 0.905 | 0.973 | 0.917 |
| IA-LM |  |  |  |  |  |  | 0.377 | 0.216 | 0.0793 | 0.112 | 0.829 | 0.729 | 0.521 | 0.161 | 0.133 |  |  |  |  |  |
| LC-2-ad | 0.901 | 0.96 | 0.931 | 0.912 | 0.847 | 0.494 | 0.424 | 0.404 | 0.106 | 0.136 | 0.699 | 0.71 | 0.466 | 0.364 | 0.223 | 0.981 | 1.04 | 0.869 | 0.925 | 0.424 |
| LCLC-97TM1 | 0.199 | 0.216 | 0.176 | 0.193 | 0.213 |  | 0.145 | 0.142 | 0.128 | 0.103 | 0.407 | 0.387 | 0.213 | 0.154 | 0.141 | 0.865 | 0.84 | 0.889 |  | 0.703 |
| LCLC-103H | 0.629 | 0.687 | 0.626 | 0.674 | 0.663 | 0.676 | 0.655 | 0.521 | 0.544 | 0.345 | 0.79 | 0.739 | 0.566 | 0.45 | 0.379 | 1.03 | 1.08 | 1.01 | 1.14 | 0.975 |
| LK-2 | 0.83 | 0.818 | 0.834 | 0.707 | 0.725 | 0.425 | 0.504 | 0.408 | 0.381 | 0.246 | 0.695 | 1.02 |  | 0.526 | 0.172 | 0.173 | 0.214 | 0.199 |  | 0.212 |
| LOU-NH91 | 0.796 | 0.813 | 0.777 | 0.613 | 0.78 | 0.556 | 0.591 | 0.259 | 0.203 | 0.209 | 0.938 | 0.447 | 0.285 | 0.147 | 0.282 | 0.411 | 0.354 | 0.303 |  | 0.323 |
| LU99A | 0.596 | 0.488 | 0.477 | 0.389 | 0.634 | 0.287 | 0.304 | 0.357 | 0.152 | 0.156 | 0.196 | 0.269 | 0.257 | 0.176 | 0.179 | 0.187 | 0.218 | 0.235 | 0.241 | 0.242 |
| LXF-289 | 0.757 | 0.647 | 0.751 |  | 0.677 | 0.798 | 0.787 | 0.524 | 0.157 | 0.0919 | 0.959 | 0.945 | 0.783 | 0.418 | 0.0925 | 0.627 | 0.798 | 0.823 | 0.732 | 0.662 |
| NCI-H23 | 0.421 | 0.372 | 0.407 | 0.442 | 0.285 | 0.53 | 0.472 | 0.306 | 0.188 | 0.165 | 0.277 | 0.35 | 0.24 | 0.132 | 0.197 | 0.212 | 0.234 | 0.197 | 0.234 | 0.214 |
| NCI-H522 | 0.734 | 0.86 | 0.815 |  | 0.751 |  |  |  |  |  | 0.517 | 0.716 | 0.625 | 0.46 | 0.333 | 1.49 | 1.22 | 1.98 | 1.05 | 1.08 |
| NCI-H1299 |  |  |  |  |  | 0.753 | 0.717 | 0.369 | 0.0957 | 0.0657 | 0.767 | 0.969 | 0.505 | 0.193 | 0.16 |  |  |  |  |  |
| NCI-H1563 |  |  |  |  |  | 0.635 | 0.704 | 0.595 | 0.387 | 0.318 |  |  |  |  |  | 0.47 | 0.595 | 0.438 | 0.565 | 0.498 |
| NCI-H1623 |  |  |  |  |  |  |  |  |  |  |  |  |  |  |  | 0.528 | 0.542 | 0.515 | 0.536 | 0.51 |
| NCI-H1648 | 0.47 | 0.514 | 0.488 | 0.534 | 0.509 |  |  |  |  |  | 0.528 | 0.484 | 0.565 | 0.677 | 0.225 |  |  |  |  |  |
| NCI-H1703 |  |  |  |  |  | 0.273 | 0.241 | 0.235 | 0.157 | 0.123 | 0.405 | 0.468 | 0.358 | 0.108 | 0.0868 |  |  |  |  |  |
| NCI-H2342 | 0.787 | 0.81 | 0.832 | 0.871 | 0.918 |  |  |  |  |  | 0.432 | 0.478 | 0.356 | 0.38 | 0.432 | 0.778 | 0.653 | 0.657 | 0.761 | 0.693 |
| SW 900 | 0.664 | 0.84 |  | 0.548 | 0.829 |  |  |  |  |  | 0.928 | 0.948 | 0.66 | 0.212 | 0.258 | 0.171 | 0.162 | 0.19 | 0.18 | 0.176 |
